Reference: PubChem BioAssay (NCI)
Several values for one entry are separate records, joined by “and”; a condition that tells them apart may be missing. Equal values may be shown once.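 The compound was tested at five concentrations on cells cultured in 96-well plates, with a 48-hour exposure period. GI50 marks 50% less growth. Definition used: TGI = concentration required for complete inhibition of growth.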

Key:
Experiment in all cases: DTP human tumour cell line panel, 48 h
786-0 renal = system: 786-0 renal
HCC-2998 colon = system: HCC-2998 colon
HCT-116 colon = system: HCT-116 colon
HCT-15 colon = system: HCT-15 colon
HL-60(TB) leukemia = system: HL-60(TB) leukemia
SF-268 CNS = system: SF-268 CNS
SF-539 CNS = system: SF-539 CNS
SK-MEL-5 melanoma = system: SK-MEL-5 melanoma
SK-OV-3 ovarian = system: SK-OV-3 ovarian
UO-31 renal = system: UO-31 renal

SMILES | GI50 (786-0 renal) | TGI (786-0 renal) | GI50 (HCC-2998 colon) | TGI (HCC-2998 colon) [µM] | GI50 (HCT-116 colon) | TGI (HCT-116 colon) | GI50 (HCT-15 colon) | TGI (HCT-15 colon) | GI50 (HL-60(TB) leukemia) | TGI (HL-60(TB) leukemia) | GI50 (SF-268 CNS) | TGI (SF-268 CNS) [µM] | GI50 (SF-539 CNS) | TGI (SF-539 CNS) | GI50 (SK-MEL-5 melanoma) | TGI (SK-MEL-5 melanoma) [µM] | GI50 (SK-OV-3 ovarian) [µM] | TGI (SK-OV-3 ovarian) [µM] | GI50 (UO-31 renal) | TGI (UO-31 renal) [µM]
COC(=O)Nc1nc2ccc(Oc3ccc(NC(=O)Nc4ccccc4)cc3)cc2[nH]1 | 0.18 µM | 5.05 µM | 0.458 µM | > 17.7 | 0.119 µM | > 10.4 µM | 0.135 µM | > 25 µM | 0.0654 µM | 0.295 µM | 0.267 µM | > 14.5 | 0.0885 µM | 0.878 µM | 0.0702 µM | 1.18 | 0.0696 | 0.3 | 1.65 µM | > 25
COC(=O)c1cccc2cccc(C(=O)Nc3ccc(C)cc3C)c12 |  | > 100 µM |  | > 100 |  | > 100 µM |  | > 100 µM |  | 35 µM |  | > 100 |  | > 100 µM |  | > 100 |  | > 100 |  | > 100
C[N+](C)(C)CC1CCCC(C[N+](C)(C)C)C1=O (stereo not given) |  | 2.38 µM |  | 8.63 |  | 2.23 µM |  | 0.874 µM |  | 2.22 µM |  | 55.9 |  | 8.8 µM |  | 10.5 |  | 26 |  | 7.68
NCCCC[C@@H]1NC(=O)[C@H]2CCCN2C(=O)[C@H](Cc2ccccc2)NC(=O)[C@H](Cc2ccccc2)CNC1=O | > 100 µM | > 100 µM | > 100 µM | > 100 | > 100 µM | > 100 µM | > 100 µM | > 100 µM | > 100 µM | > 100 µM | > 100 µM | > 100 | > 100 µM | > 100 µM | > 100 µM | > 100 | > 100 | > 100 | > 100 µM | > 100
Cn1cc(C(=O)c2ccccc2)ccc1=O |  | > 100 µM |  | > 100 |  | > 100 µM |  | > 100 µM |  | > 100 µM |  | > 100 |  | > 100 µM |  | > 100 |  | > 100 |  | > 100
COc1cc(OC(=O)c2c(O)cc(O)c(O)c2C)cc(C)c1C(=O)Oc1cc(C)c(C(=O)O)c(O)c1 |  | > 100 µM |  | > 100 |  | > 100 µM |  | > 100 µM |  | > 100 µM |  | > 100 |  | > 100 µM |  | > 100 |  | > 100 |  | > 100
CC1=C2C(=O)O[C@@H](c3ccoc3)[C@]2(C)CCC1 |  | > 100 µM |  | > 100 |  | > 100 µM |  | > 100 µM |  | > 100 µM |  | > 100 |  | > 100 µM |  | > 100 |  | > 100 |  | > 100
CC(=O)OC[C@]12CC[C@H]3[C@@H](C[C@H]4O[C@]45[C@@H](O)C=CC(=O)[C@]35C)[C@@H]1CC[C@@H]2[C@H](C)[C@H]1CC(C)=C(C)C(=O)O1 | 0.241 µM and 0.232 µM | 0.597 µM and 0.595 µM | 0.822 µM and 0.795 µM | 2.07 | 0.277 µM and 0.166 µM | 0.6 µM and 0.424 µM | 0.294 µM and 0.177 µM | 0.751 µM and 0.371 µM | 0.243 µM and 0.119 µM | 0.642 µM and 0.37 µM | 0.397 µM and 0.376 µM | 1.28 | 0.303 µM and 0.2 µM | 0.73 µM and 0.452 µM | 0.702 µM and 0.664 µM | 2.02 | 2.78 | 5.98 | 0.84 µM and 0.776 µM | 2
CCN(CC)c1sc(N(CC)CC)c2c1SSSSS2 | 1.2 µM | 3.09 µM | 0.935 µM | 2.4 | 0.356 µM | 1.14 µM | 1.24 µM | > 34.2 µM | 3.08 µM | > 100 µM | 1.96 µM | 4.53 | 0.995 µM | 2.63 µM | 0.851 µM | 1.95 | 3.13 | 6.98 | 0.867 µM | 2.88
Fc1cc(F)c(COc2cc(Cn3cnc4c(Cl)nc(Cl)nc43)ccc2C23CC4CC(CC(C4)C2)C3)cc1F | 19.4 µM | 34.9 µM | 18.7 µM | 33.5 | 15.2 µM | 28.5 µM | 16 µM | 31.9 µM | 1.99 µM | 4.58 µM | 16.4 µM | 33.1 | 17.9 µM | 32.3 µM | 1.68 µM | 3.53 | 22 | 43.3 | 17.8 µM | 31.6
NC(=S)N/N=C/c1ccc(OC(=O)COc2ccc(Cl)cc2)cn1 | 3.64 µM | 9.98 µM | 8.46 µM | > 100 | 4.93 µM | > 100 µM | 22.9 µM | > 100 µM | 0.954 µM | 20.8 µM | 2.28 µM | 21.8 | 3.64 µM | 22.8 µM | 3.24 µM | 23.6 | 40 | > 100 | 3.24 µM | 21.5
CCS(=O)(=O)c1ccc(OC)c(Nc2ncc(-c3cccc(C(C)=O)c3)o2)c1 | > 25 µM | > 25 µM | > 25 µM | > 25 | 11.4 µM | > 25 µM | > 25 µM | > 25 µM | > 25 µM | > 25 µM | 17.9 µM | > 25 | 8.69 µM | > 25 µM | > 25 µM | > 25 | 21.5 | > 25 | 5.86 µM | > 25
COC(=O)C(=O)C(C(=O)C(=O)Nc1ccccc1C(N)=O)c1nc2ccc(Cl)cc2[nH]c1=O (stereo not given) |  | > 100 µM |  | > 100 |  | > 100 µM |  | > 100 µM |  | > 100 µM |  | > 100 |  | > 100 µM |  | > 100 |  | > 100 |  | > 100
COc1ccc(C(=O)COc2cccc(/C=C3\COc4ccc5ccccc5c4C3=O)c2)cc1 | 57.4 µM | > 100 µM | 23.5 µM | > 100 | 4.21 µM | > 100 µM | 7.59 µM | > 100 µM | 2.07 µM | 6.83 µM | 7.83 µM | > 100 | 13.3 µM | > 100 µM | 5.58 µM | > 100 | 82.2 | > 100 | 20.4 µM | > 100
Cc1ccccc1N(CCC#N)C1=NN(C(=O)CC(=O)Nc2ccccc2)C(c2ccccc2)C1 (stereo not given) |  | > 100 µM |  | > 100 |  | > 100 µM |  | > 100 µM |  | > 100 µM |  | > 100 |  | > 100 µM |  | > 100 |  | > 100 |  | > 100
